Molecules are shown by their SMILES. Activity calls are given as the source filed them.

This is an account of results in ChEMBL document CHEMBL1201862, “PubChem BioAssay data set” (2004).

Assay [1] in a line: insulin promoter down-regulators in MIN6 cells, imaging, high-content screening, mouse beta cells (AID 1628). Format: functional.
Assay [2] in a line: cytotoxicity in MIN6 insulinoma cells, dose response, cytotoxicity control, cell-based, mouse insulinoma (AID 2122).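 Further: confirmatory high-throughput counterscreen run to flag cytotoxic compounds; mouse MIN-6 beta cells carrying an insulin promoter eGFP reporter.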 Format: functional.
In assay [3] the target is T1, Beta-galactosidase (Escherichia coli, UniProt Q8VNN2). Briefly: PubChem AID 485352. The assay is classed as functional.
A short description of assay [4]: inhibitors of intracellular T. cruzi replication, confirmation, NIH3T3 host cells, beta-gal luminescence (AID 2044).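 Further: intracellular parasites grown in NIH/3T3 mouse fibroblasts as host cells; luminescent beta-galactosidase reporter signal from transgenic T. cruzi replicating inside host cells; inhibitors lower the luminescence signal.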 The assay is classed as functional, cell-based.
For assay [5], the target named is T2, Type-1 angiotensin II receptor (Homo sapiens, UniProt P30556).
T2 sequence (P30556 whole entry): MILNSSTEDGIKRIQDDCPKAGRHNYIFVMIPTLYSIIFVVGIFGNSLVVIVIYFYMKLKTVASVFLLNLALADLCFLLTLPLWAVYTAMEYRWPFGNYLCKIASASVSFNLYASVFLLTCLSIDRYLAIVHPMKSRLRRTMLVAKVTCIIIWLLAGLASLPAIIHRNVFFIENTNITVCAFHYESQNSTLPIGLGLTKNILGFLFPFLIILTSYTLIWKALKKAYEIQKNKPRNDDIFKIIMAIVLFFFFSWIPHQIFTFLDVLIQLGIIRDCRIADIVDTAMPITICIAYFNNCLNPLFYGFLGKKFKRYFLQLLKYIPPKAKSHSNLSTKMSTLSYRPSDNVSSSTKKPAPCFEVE
Briefly: AT1 receptor antagonists, dose response, selectivity assay for APJ receptor antagonist project, cell-based, uHTS hits (AID 463214).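 Further: antagonist potency against angiotensin II stimulated AT1 response.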 The assay is classed as functional.

Assay [6] in a line: cytotoxicity toward NIH3T3 fibroblasts, dose response, counter-screen, cell-based, ATP luminescence, mouse fibroblasts (AID 2010).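 Further: cells exposed to compound for about 90 hours before reading.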 Format: functional. A general note: Counterscreens check selectivity or assay interference.
The target of assay [7] is T3, Hexokinase HKDC1 (Homo sapiens, UniProt Q2TB90).
T3 sequence (Q2TB90 whole entry): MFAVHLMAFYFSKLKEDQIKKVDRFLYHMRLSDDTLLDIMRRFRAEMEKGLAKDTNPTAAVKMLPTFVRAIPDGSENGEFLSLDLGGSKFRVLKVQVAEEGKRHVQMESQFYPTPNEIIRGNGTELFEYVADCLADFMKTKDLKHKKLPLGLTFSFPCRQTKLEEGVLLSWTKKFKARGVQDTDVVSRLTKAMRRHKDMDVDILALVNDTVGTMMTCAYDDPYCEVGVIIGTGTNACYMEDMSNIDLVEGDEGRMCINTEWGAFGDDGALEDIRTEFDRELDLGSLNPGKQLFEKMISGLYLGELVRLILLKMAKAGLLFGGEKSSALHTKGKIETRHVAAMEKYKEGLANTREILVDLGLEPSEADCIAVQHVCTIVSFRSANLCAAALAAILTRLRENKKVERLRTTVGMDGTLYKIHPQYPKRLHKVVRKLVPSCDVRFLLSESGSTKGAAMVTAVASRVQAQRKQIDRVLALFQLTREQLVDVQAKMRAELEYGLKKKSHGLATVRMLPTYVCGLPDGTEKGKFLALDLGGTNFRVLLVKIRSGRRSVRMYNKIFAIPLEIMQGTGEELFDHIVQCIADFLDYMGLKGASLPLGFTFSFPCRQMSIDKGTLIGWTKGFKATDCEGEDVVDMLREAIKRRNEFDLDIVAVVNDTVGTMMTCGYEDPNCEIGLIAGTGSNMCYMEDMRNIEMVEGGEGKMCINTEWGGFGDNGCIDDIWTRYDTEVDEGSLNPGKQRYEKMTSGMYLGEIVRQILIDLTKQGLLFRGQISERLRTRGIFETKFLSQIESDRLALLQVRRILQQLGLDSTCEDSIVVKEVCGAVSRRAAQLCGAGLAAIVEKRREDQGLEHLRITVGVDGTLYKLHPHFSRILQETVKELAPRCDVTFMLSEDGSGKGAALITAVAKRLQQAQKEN
Briefly: HKDC1 hexokinase activators, dose response, biochemical, W721R variant (AID 504730). The assay is classed as functional.

In assay [8] the target is Hexokinase-1 (Homo sapiens, UniProt P19367). Briefly: hexokinase 1 activators, dose response, selectivity assay for HKDC1 activator project, biochemical (AID 504762). The assay is classed as functional.
Assay [9] addresses T4, RNA-binding protein pos-1 (Caenorhabditis elegans, UniProt G5EF15).
T4 sequence (G5EF15 whole entry): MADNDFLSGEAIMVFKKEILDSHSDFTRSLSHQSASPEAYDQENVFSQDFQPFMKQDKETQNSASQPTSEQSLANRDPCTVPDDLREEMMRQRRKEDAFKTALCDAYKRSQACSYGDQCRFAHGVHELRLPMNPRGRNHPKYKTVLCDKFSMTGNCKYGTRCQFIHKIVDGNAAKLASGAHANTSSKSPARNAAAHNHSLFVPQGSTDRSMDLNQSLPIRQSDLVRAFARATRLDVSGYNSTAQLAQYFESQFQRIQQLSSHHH
Briefly: inhibitors of POS-1/mex-3 RNA binding, dose response, biochemical, fluorescence polarization (AID 1964). (In fluorescence polarisation assays a small probe gives low polarisation when free and higher when bound to something large.)

Assay [10] has as its target T5, Runt-related transcription factor 1/Core-binding factor subunit beta (Homo sapiens, UniProt Q01196+Q13951). Briefly: inhibitors of RUNX1 Runt–CBFb-SMMHC binding, primary screen, biochemical, FRET, Cerulean-Runt, Venus-CBFb-SMMHC, uHTS (AID 1434).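 Further: partner is the CBFb-SMMHC leukemia fusion protein rather than wild-type CBFb.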 Format: protein assay.
Assay [11] has as its target T6, Zinc finger protein mex-5 (Caenorhabditis elegans, UniProt Q9XUB2).
T6 sequence (Q9XUB2 whole entry): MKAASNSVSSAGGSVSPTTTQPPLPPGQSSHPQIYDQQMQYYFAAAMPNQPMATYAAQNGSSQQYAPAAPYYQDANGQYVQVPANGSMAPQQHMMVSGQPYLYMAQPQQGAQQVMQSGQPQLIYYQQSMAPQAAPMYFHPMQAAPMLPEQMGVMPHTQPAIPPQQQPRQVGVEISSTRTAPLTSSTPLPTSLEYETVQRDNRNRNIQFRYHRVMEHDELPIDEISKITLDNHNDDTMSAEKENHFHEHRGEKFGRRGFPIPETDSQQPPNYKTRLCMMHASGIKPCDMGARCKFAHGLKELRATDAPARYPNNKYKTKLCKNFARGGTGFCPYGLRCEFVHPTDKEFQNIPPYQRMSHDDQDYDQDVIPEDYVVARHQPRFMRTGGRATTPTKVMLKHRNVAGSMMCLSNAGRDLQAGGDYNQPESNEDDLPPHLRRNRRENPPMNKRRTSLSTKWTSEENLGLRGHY
Briefly: MEX-5/TCR-2 RNA interaction inhibitors, dose response, biochemical, C. elegans, fluorescence polarization (AID 1960).

Assay [12] deals with T5, Runt-related transcription factor 1/Core-binding factor subunit beta. Briefly: inhibitors of RUNX1 Runt–CBFb-SMMHC binding, biochemical, TR-FRET (AID 1438). Format: protein assay. In general terms: In TR-FRET formats the signal depends on donor and acceptor labels being close together.
In assay [13] the target is Troponin, cardiac muscle (Homo sapiens, UniProt P19429+P45379+P63316). Briefly: Fluorescence-based biochemical high throughput dose response assay for activators of the calcium sensitivity of cardiac Regulated Thin Filaments (RTF). [Related pubchem assays (depositor defined):AID493008, AID493018, AID504382, AID504383]. The assay is classed as protein-complex assay.
Assay [14] concerns the target T7, Delta-type opioid receptor (Homo sapiens, UniProt P41143). Briefly: HTS Image-Based Screen for Antagonists of the DOR Receptor. [Related pubchem assays (depositor defined):AID1777, AID1785, AID1786, AID2133]. The assay is classed as functional.
In assay [15] the target is T8, Mu-type opioid receptor (Homo sapiens, UniProt P35372). Briefly: HTS Image-Based Screen for Agonists of the MOR Receptor. [Related pubchem assays (depositor defined):AID1777, AID1785, AID1786, AID2133]. Format: functional.
In assay [16] the target is T7, Delta-type opioid receptor. Briefly: HTS Image-Based Screen for Agonists of the DOR Receptor. [Related pubchem assays (depositor defined):AID1777, AID1786, AID2133]. Format: functional.
Assay [17] concerns the target T9, Kappa-type opioid receptor (Homo sapiens, UniProt P41145). The assay is classed as functional.
Assay [18] concerns the target T1, Beta-galactosidase. The assay is classed as functional.
Assay [19] has as its target T9, Kappa-type opioid receptor. Format: functional. This is another data set of the same source.
The target of assay [20] is T8, Mu-type opioid receptor. Briefly: MOR agonists by imaging, SAR follow-up, image-based (AID 2352). The assay is classed as functional.
Assay [21] concerns the target T7, Delta-type opioid receptor. Briefly: DOR agonists, SAR follow-up, image-based (AID 2370). Format: functional.
In assay [22] the target is T9, Kappa-type opioid receptor. Briefly: KOR antagonists by imaging, SAR follow-up, image-based (AID 2348). The assay is classed as functional.
Assay [23] addresses T8, Mu-type opioid receptor. Briefly: MOR antagonists, SAR follow-up, image-based (AID 2420).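 Further: compounds added before stimulation of receptor with agonist DAMGO.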 Format: functional.
Assay [24] addresses T9, Kappa-type opioid receptor. Briefly: KOR agonist analogs, imaging readout, SAR follow-up, image-based (AID 2359). The assay is classed as functional.
Assay [25] concerns the target T7, Delta-type opioid receptor. Briefly: DOR antagonists, SAR follow-up, image-based (AID 2357). Format: functional.
Assay [26] has as its target T9, Kappa-type opioid receptor. Briefly: kappa opioid receptor blockers, cell-based, luminescence, beta-arrestin, SAR follow-up (AID 2285). The assay is classed as functional.

As usually defined, the IC50 is the point on the concentration scale where inhibition reaches its midpoint. The term EC50 denotes the concentration that produces a half-maximal response. Take `Cc1ccc(N=Nc2ccc(O)c3ncccc23)cc1C`: the figures for the IC50 in assay [1], in assay [2] and in assay [5] were 2.41 µM (active), 1.66 µM (active) and 35.3 µM (not active), respectively. Further, the EC50 was > 40 µM (inactive) in assay [3]; 1.13 µM (active) in assay [4]; > 60 µM (inconclusive) in [6]; 21.7 µM (inactive) in assay [7]; > 80 µM (inactive) in [8].
On to `CC(=O)c1ccc2cccc3c2c1NC(C)=N3`, for which the EC50 in assay [9] is 9.79 µM (active); in assay [11], 6.57 µM (active); in [13], 17.3 µM (inactive). The IC50 is 3.05 µM (active) in assay [10] and > 100 µM (inactive) in [12].
In the case of `CCOc1ccc(C(=O)NC2CC3CCCC(C2)N3Cc2ccccc2)cc1` (stereo unspecified), the IC50 was > 32 µM (inactive) in assay [14]; 7.52 µM (active) in assay [17]; 14.8 µM in [19]; > 32 µM (inactive) in [22]; > 32 µM (inactive) in assay [23]; > 32 µM (inactive) in [25]. Also, the IC50 in [26] is > 10 µM (inactive). The EC50 is > 32 µM (inactive) in assay [15]; > 32 µM (inactive) in assay [16]; > 31.5 µM (inactive) in assay [18]; > 32 µM (inactive) in assay [20]; > 32 µM (inactive) in assay [21]; > 32 µM (inactive) in assay [24].
